Measured values reported in patent publication US20190308988A1, “OPIOID RECEPTOR ANTAGONIST PRODRUGS” (Nirsum Laboratories, Inc., priority 2017, published 2019).
In brackets after ≈: the same amount, converted by molar mass.

Tests used:
[1] = Liver S9 fraction stability, monkey; type: in vitro ADME, cynomolgus monkey; conditions: monkey liver S9 1.0 mg/ml, 2 μM, 37° C.
Experimental: (§1) Liver S9 fraction stability determination of the test compounds in dog, cynomolgus monkey and human is performed using HPLC-MS. Test compound (2 μM, 0.1% DMSO, 1% Methanol final concentration) was assessed for stability in a 50 μl phosphate buffer containing 1.0 mg/ml S9 protein from each of the three species and 5 mM D-saccharic acid-1, 4-lactone. Samples were incubated at 37° C. for 60 minutes and the % compound remaining was assessed.

[2] = Rat pharmacokinetic studies, intramuscular administration; type: in vivo, male Sprague Dawley Rats; conditions: male, Sprague Dawley, rat, plasma, im; for AUC(0-inf): read-out: AUC0-inf (ng · h/mL) prodrug; for half-life: read-out: Half-life t1/2 (hour) prodrug (converted)
Experimental: The purpose of this study is to determine the pharmacokinetics of test compounds in plasma, following intramuscular administration to male Sprague Dawley Rats (n=3, unless otherwise specified).
The dose formulation of 400 mg base equivalents/ml in sesame oil+1% benzyl alcohol (unless otherwise specified) was administered by intramuscular injection. The dose volume was determined by the animals' body weight determined on the morning of dosing day.
Each collected blood sample was centrifuged for 4 minutes at 4° C. and 10000 rpm for plasma collection. Plasma was collected and transferred into a pre-labeled PP tube in dry ice at each time point and precipitated immediately using ACN at a ratio of 1:4 (plasma:ACN). Centrifuged again (10 minutes, 12000 rpm) and obtain the supernatant.
LC-MS/MS methods for the quantitative determination of test compound in biological matrix were developed. […] The sample analysis was performed concurrently with a set of calibration standards and two sets of QC samples using the LC-MS/MS method.
Plasma concentration versus time data was analyzed by non-compartmental approaches using the Phoenix WinNonlin 6.3 software program. Cmax, Tmax, T1/2, AUC(0-t), AUC(0-inf), MRT(0-t), MRT(0-inf) and graphs of plasma concentration versus time profile were prepared.

[3] = Liver S9 fraction stability, human; type: in vitro ADME; conditions: human liver S9 1.0 mg/ml, 2 μM, 37° C.
Experimental: as §1

[4] = Dog pharmacokinetic studies, deep intramuscular administration; type: in vivo, Beagle dogs; conditions: Beagle, dog, plasma, im; for AUC(0-inf): read-out: AUC0-inf (ng · h/mL) prodrug; for half-life: read-out: Half-life t1/2 (hour) prodrug (converted)
Outline: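 Beagle dogs (n=3) dosed by deep intramuscular injection into quadriceps or biceps femoris, formulation 400 mg base equivalents/mL in sesame oil + 1% benzyl alcohol, under propofol sedation. Plasma quantified by LC-MS/MS; non-compartmental analysis for Cmax, Tmax, T1/2, AUC and MRT.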

DOR = target: T1, DOR (Homo sapiens, UniProt P41143); assay: Opioid receptor binding assay, DOR ([3H]-DADLE)
T1 construct: expressed in transfected cells
T1 sequence (P41143 whole entry): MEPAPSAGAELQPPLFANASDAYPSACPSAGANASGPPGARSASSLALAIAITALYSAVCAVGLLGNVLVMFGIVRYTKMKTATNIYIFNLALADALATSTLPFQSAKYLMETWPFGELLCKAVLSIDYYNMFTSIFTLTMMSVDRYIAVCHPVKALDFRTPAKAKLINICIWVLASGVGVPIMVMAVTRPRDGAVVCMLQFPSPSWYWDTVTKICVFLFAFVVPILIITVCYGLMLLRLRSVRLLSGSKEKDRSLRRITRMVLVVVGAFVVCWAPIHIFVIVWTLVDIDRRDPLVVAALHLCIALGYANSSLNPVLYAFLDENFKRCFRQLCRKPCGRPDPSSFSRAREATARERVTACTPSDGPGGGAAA
Experimental: (§2) Receptor binding assays were performed to assess the ability of compounds to inhibit binding to radiolabeled ligand.
(§3) The stable cell lines were established and prepared cell membrane obtained using these cell lines.
(§4) 1) Transfer 1 μl of specified concentration compound to assay plate according to the plate map for nonspecific binding. Transfer 1 μl of DMSO to assay plate according to plate map for total binding. 2) Follow the plate map. Dispense 99 μl of membrane stocks into the plate. 3) Add 100 μl of radio ligand. 4) Seal the plates. Incubate at RT for 1 hour. 5) Soak the Unifilter-96 GF/C filter plates with 50 μl of 0.3% PEI per well for at least 0.5 hour at room temperature. 6) When binding assays are completed, filter the reaction mixture through GF/C plates using Perkin Elmer Filtermate Harvester, and then wash each plate for 4 times with cold wash buffer. 7) Dry the filter plates for 1 hour at 50 degrees. 8) After drying, seal the bottom of the filter plate wells using Perkin Elmer Unifilter-96 backing seal tape. Add 50 μl of Perkin Elmer Microscint 20 cocktail. Seal top of filter plates with Perkin Elmer TopSeal-A sealing film. 9) Count ^3H trapped on filter using Perkin Elmer MicroBeta2 Reader second day. 10) Analyze the data with GraphPad Prism 5. Calculate the “Inhibition [% Control]” using the equation: % Inh=(1−Background subtracted Assay value/Background subtracted HC value)*100.

[5] = Solubility determination in oil (Table 10); conditions: thermodynamic from solid; for solubility at 24 h: 25 °C, Heating Temp. 60 °C, Obs. Temp. 25 °C; for solubility / solubility thermodynamic: 40 °C, Heating Temp. 40 °C, Obs. Temp. 40 °C; for solubility thermodynamic: water, Equilibrium solubility: Water
Experimental: A known amount of test substance (˜40 mg) was weighed into the vial, 100 μL of oil was added and heated to 60° C. and then system was slurried to reach equilibrium. […] Extra oil was added into the vial once compound precipitated out and then the system was re-equilibrated at 1000 rpm at room temperature (25° C.). Final concentration was determined by HPLC method as described below in Table 6a and 6b.

KOR = target: T2, KOR (Homo sapiens, UniProt P41145); assay: Opioid receptor binding assay, KOR ([3H]Diprenorphine)
T2 construct: expressed in transfected cells
T2 sequence (P41145 whole entry): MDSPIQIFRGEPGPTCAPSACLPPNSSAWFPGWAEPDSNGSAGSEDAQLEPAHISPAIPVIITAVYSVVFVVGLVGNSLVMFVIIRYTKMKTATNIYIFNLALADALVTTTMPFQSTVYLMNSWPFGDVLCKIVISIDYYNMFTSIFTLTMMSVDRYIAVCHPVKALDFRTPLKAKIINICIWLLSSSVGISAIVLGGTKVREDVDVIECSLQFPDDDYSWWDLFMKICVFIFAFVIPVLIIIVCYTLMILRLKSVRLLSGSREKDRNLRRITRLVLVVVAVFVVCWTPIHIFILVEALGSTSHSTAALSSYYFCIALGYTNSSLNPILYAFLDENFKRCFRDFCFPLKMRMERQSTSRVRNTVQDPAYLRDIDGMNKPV
Experimental: as §2, §3, §4

MOR = target: T3, MOR (Homo sapiens, UniProt P35372); assay: Opioid receptor binding assay, MOR ([3H]DAMGO)
T3 construct: expressed in transfected cells
T3 sequence (P35372 whole entry): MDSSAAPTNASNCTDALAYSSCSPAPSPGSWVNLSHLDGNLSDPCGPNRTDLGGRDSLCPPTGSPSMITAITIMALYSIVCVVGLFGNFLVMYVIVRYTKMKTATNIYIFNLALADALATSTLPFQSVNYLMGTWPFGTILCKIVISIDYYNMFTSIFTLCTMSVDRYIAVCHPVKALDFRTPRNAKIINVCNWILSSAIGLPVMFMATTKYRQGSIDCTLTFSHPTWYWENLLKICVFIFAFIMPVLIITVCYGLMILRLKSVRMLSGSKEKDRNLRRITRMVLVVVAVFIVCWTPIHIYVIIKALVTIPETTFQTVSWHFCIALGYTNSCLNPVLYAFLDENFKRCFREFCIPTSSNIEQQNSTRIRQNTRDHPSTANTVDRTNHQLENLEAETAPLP
Experimental: as §2, §3, §4

[6] = Liver S9 fraction stability, dog; type: in vitro ADME; conditions: dog liver S9 1.0 mg/ml, 2 μM, 37° C.
Experimental: as §1

[7] = 80 mg/kg, Sesame oil + 1% Benzyl Alcohol
[8] = 123 mg/kg, Sesame oil + 1% Benzyl Alcohol
[9] = 165 mg/kg, Sesame oil + 1% Benzyl Alcohol
[10] = 30 mg/kg, IM 30 mg/kg, Sesame oil + 1% Benzyl Alcohol
[11] = 48 mg/kg, IM 48 mg/kg (deep), Sesame oil + 1% Benzyl Alcohol
[12] = 48 mg/kg, IM 48 mg/kg (shallow), Sesame oil + 1% Benzyl Alcohol
[13] = 96 mg/kg, IM 96 mg/kg, Sesame oil + 1% Benzyl Alcohol
[14] = oil or lipid, Approximate Solubility in Excipient: Cottonseed oil
[15] = oil or lipid, Approximate Solubility in Excipient: Sesame oil
[16] = 80 mg/kg, Cottonseed + 1% Benzyl Alcohol
[17] = 123 mg/kg, Cottonseed oil + 1% Benzyl Alcohol
[18] = 165 mg/kg, Cottonseed oil + 1% Benzyl Alcohol
[19] = 48 mg/kg, IM 48 mg/kg (deep), Cottonseed + 1% Benzyl Alcohol
[20] = 48 mg/kg, IM 48 mg/kg (shallow), Cottonseed + 1% Benzyl Alcohol

C=C1CC[C@@]2(O)C3Cc4ccc(OC(=O)OCCCCCCCCCCCC)c5c4[C@@]2(CCN3CC2CC2)[C@H]1O5 [Compound 6, (4aS,7aS,12bS)-3-(cyclopropylmethyl)-4a-hydroxy-7-methylene-2,3,4,4a,5,6,7,7a-octahydro-1H-4,12-methanobenzofuro[3,2-e]isoquinolin-9-yl dodecyl carbonate]
% remaining at 60 minutes, Monkey [1]: 0%
AUC(0-inf) [2, 7]: 78.9 ng·h/mL
half-life [2, 7]: 340 h
AUC(0-inf) [2, 8]: 620 ng·h/mL
half-life [2, 8]: 213 h
AUC(0-inf) [2, 9]: 637 ng·h/mL
half-life [2, 9]: 204 h
% remaining at 60 minutes, Human [3]: 5.3%
AUC(0-inf) [4, 10]: 398 ng·h/mL
half-life [4, 10]: 95 h
AUC(0-inf) [4, 11]: 2190 ng·h/mL
half-life [4, 11]: 54 h
AUC(0-inf) [4, 12]: 1020 ng·h/mL
half-life [4, 12]: 135 h
AUC(0-inf) [4, 13]: 1290 ng·h/mL
half-life [4, 13]: 88 h
IC50 (DOR): 500 nM
solubility at 24 h [5, 14]: > 397 mg/mL
solubility at 24 h [5, 15]: > 386 mg/mL
solubility [5, 14]: > 421 mg/mL
solubility [5, 15]: > 403 mg/mL
solubility ([5]; organic solvent or mixture, Approximate Solubility in Excipient: Ethanol): 120 to 170 mg/mL (≈ 217 to 308 mM)
solubility thermodynamic [5]: 0.002 mg/mL (≈ 0.00362 mM)
IC50 (KOR): 51.1 nM
IC50 (MOR): 14.9 nM
% remaining at 60 minutes, Dog [6]: 17.1%

C=C1CC[C@@]2(O)C3Cc4ccc(OCOC(=O)OCCCCCCCCCCCC)c5c4[C@@]2(CCN3CC2CC2)[C@H]1O5 [Compound 24, (((4aS,7aS,12bS)-3-(cyclopropylmethyl)-4a-hydroxy-7-methylene-2,3,4,4a,5,6,7,7a-octahydro-1H-4,12-methanobenzofuro[3,2-e]isoquinolin-9-yl)oxy)methyl dodecyl carbonate]
% remaining at 60 minutes, Monkey [1]: 3%
AUC(0-inf) [2, 16]: 147 ng·h/mL
half-life [2, 16]: 398 h
AUC(0-inf) [2, 17]: 547 ng·h/mL
half-life [2, 17]: 717 h
AUC(0-inf) [2, 18]: 453 ng·h/mL
half-life [2, 18]: 851 h
% remaining at 60 minutes, Human [3]: 3.5%
AUC(0-inf) [4, 19]: 613 ng·h/mL
half-life [4, 19]: 59.6 h
AUC(0-inf) [4, 20]: 526 ng·h/mL
half-life [4, 20]: 102 h
IC50 (DOR): 2120 nM
solubility at 24 h [5, 14]: > 403 mg/mL
solubility at 24 h [5, 15]: 338 to 368 mg/mL (≈ 581 to 633 mM)
solubility thermodynamic [5]: < 0.001 mg/mL
IC50 (KOR): 37.5 nM
IC50 (MOR): 22.4 nM
% remaining at 60 minutes, Dog [6]: 3.6%
